Source: patent US8309558B2, “Compounds for the treatment of hepatitis C” (Bristol-Myers Squibb Company, priority 2008, dated 2012)

Experiments:
[1] = target: T1, HCV NS5B RdRp genotype 1b (Hepatitis C virus genotype 1b, UniProt Q9WMX2); experiment: Standard HCV NS5B RdRp enzyme assay; assay type: biochemical; details: Table 1a; HCV NS5B RdRp genotype 1b; read-out: IC50
T1 construct: The protein was expressed with an 18 amino acid C-terminal truncation to enhance the solubility; made in house; host or cells: E. coli BL21(DE3), pET21a vector
Protocol: HCV NS5B RdRp cloning, expression, and purification. The cDNA encoding the NS5B protein of HCV, genotype 1b, was cloned into the pET21a expression vector. The protein was expressed with an 18 amino acid C-terminal truncation to enhance the solubility. The E. coli competent cell line BL21(DE3) was used for expression of the protein. Cultures were grown at 37° C. for ˜4 hours until the cultures reached an optical density of 2.0 at 600 nm. The cultures were cooled to 20° C. and induced with 1 mM IPTG. Fresh ampicillin was added to a final concentration of 50 μg/ml and the cells were grown overnight at 20° C.
Cell pellets (3 L) were lysed for purification to yield 15-24 mgs of purified NS5B. The lysis buffer consisted of 20 mM Tris-HCl, pH 7.4, 500 mM NaCl, 0.5% triton X-100, 1 mM DTT, 1 mM EDTA, 20% glycerol, 0.5 mg/ml lysozyme, 10 mM MgCl2, 15 ug/ml deoxyribonuclease I, and Complete TM protease inhibitor tablets (Roche). After addition of the lysis buffer, frozen cell pellets were resuspended using a tissue homogenizer. To reduce the viscosity of the sample, aliquots of the lysate were sonicated on ice using a microtip attached to a Branson sonicator. The sonicated lysate was centrifuged at 100,000×g for 1 hr at 4° C. and filtered through a 0.2 μm filter unit (Corning).
The protein was purified using three sequential chromatography steps: Heparin sepharose CL-6B, polyU sepharose 4B, and Hitrap SP sepharose (Pharmacia). The chromatography buffers were identical to the lysis buffer but contained no lysozyme, deoxyribonuclease I, MgC12 or protease inhibitor and the NaCl concentration of the buffer was adjusted according to the requirements for charging the protein onto the column. Each column was eluted with a NaCl gradient which varied in length from 5-50 column volumes depending on the column type. After the final chromatography step, the resulting purity of the enzyme is >90% based on SDS-PAGE analysis. The enzyme was aliquoted and stored at −80° C.
Standard HCV NS5B RdRp enzyme assay. HCV RdRp genotype 1b assays were run in a final volume of 60 μl in 96 well plates (Costar 3912). The assay buffer composed of 20 mM Hepes, pH 7.5, 2.5 mM KCl, 2.5 mM MgCl2, 1 mM DTT, 1.6 U RNAse inhibitor (Promega N2515), 0.1 mg/ml BSA (Promega R3961), and 2% glycerol. All compounds were serially diluted (3-fold) in DMSO and diluted further in water such that the final concentration of DMSO in the assay was 2%. HCV RdRp genotype 1b enzyme was used at a final concentration of 28 nM. A polyA template was used at 6 nM, and a biotinylated oligo-dT12 primer was used at 180 nM final concentration. Template was obtained commercially (Amersham 27-4110). Biotinylated primer was prepared by Sigma Genosys. 3H-UTP was used at 0.6 μCi (0.29 μM total UTP). Reactions were initiated by the addition of enzyme, incubated at 30° C. for 60 min, and stopped by adding 25 μl of 50 mM EDTA containing SPA beads (4 μg/μl, Amersham RPNQ 0007). Plates were read on a Packard Top Count NXT after >1 hr incubation at room temperature.
IC50 values for compounds were determined using seven different [I]. IC50 values were calculated from the inhibition using the formula y=A+((B−A)/(1+((C/x)^D))).

[2] = tested on: HCV replicon cells; experiment: HCV replicon FRET / luciferase assay (96-well plates); assay type: cell-based; details: Hepatitis C virus, Table 1a; HCV replicon; read-out: EC50
Summary of the method: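 Trypsinized replicon cells were seeded with compound titrations and incubated at 37 °C for various times. Alamar blue was added to gauge toxicity. Plates were then rinsed and either lysed with FRET peptide reagent for kinetic fluorescence reading or switched to phenol red-free DMEM for luciferase measurement.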

T1 sequence (Q9WMX2 2420-2992): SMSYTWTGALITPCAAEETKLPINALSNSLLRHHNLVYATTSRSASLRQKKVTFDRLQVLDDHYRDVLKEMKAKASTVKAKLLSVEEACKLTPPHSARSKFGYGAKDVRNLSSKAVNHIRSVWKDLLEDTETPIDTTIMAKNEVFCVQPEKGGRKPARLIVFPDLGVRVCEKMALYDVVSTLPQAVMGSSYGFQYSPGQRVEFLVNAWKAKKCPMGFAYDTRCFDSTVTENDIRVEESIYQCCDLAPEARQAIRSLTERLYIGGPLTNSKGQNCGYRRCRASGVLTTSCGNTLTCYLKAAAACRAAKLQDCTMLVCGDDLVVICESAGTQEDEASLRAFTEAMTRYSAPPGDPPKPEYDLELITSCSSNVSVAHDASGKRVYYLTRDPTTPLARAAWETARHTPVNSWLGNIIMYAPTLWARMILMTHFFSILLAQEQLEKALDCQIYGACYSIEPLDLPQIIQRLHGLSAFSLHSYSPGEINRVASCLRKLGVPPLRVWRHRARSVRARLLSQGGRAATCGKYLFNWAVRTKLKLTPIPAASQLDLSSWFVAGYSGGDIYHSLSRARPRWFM

| SMILES | IC50 [1] | EC50 [2] |
| --- | --- | --- |
| CNC(=O)c1c(-c2ccc(F)cc2)oc2ccc(-c3cccc(C(=O)NCc4cccc(F)c4)c3)cc12 | < 250 nM | < 250 nM |
| CNC(=O)c1c(-c2ccc(F)cc2)oc2ccc(-c3cccc(C(=O)NCc4ccccc4)c3)cc12 | < 250 nM | < 250 nM |
| CNC(=O)c1c(-c2ccc(F)cc2)oc2ccc(-c3cccc(C(=O)NCc4ccc(F)cc4)c3)cc12 | < 250 nM | < 250 nM |
| CNC(=O)c1c(-c2ccc(F)cc2)oc2ccc(-c3cccc(C(=O)NC4(CO)CCCC4)c3)cc12 | < 250 nM | < 250 nM |
| CNC(=O)c1c(-c2ccc(F)cc2)oc2ccc(-c3cccc(C(=O)NCc4cccc(C)c4)c3)cc12 | < 250 nM | < 250 nM |
| CNC(=O)c1c(-c2ccc(F)cc2)oc2ccc(-c3cccc(C(=O)NC(CCO)c4ccccc4)c3)cc12 (centres unmarked) | < 250 nM | 250 to 1000 nM |
| CNC(=O)c1c(-c2ccc(F)cc2)oc2ccc(-c3cccc(C(=O)N[C@@H]4CCc5ccc(O)cc54)c3)cc12 | > 1390 nM | 250 to 1000 nM |
| CNC(=O)c1c(-c2ccc(F)cc2)oc2ccc(-c3cccc(C(=O)Nc4ccnc(C)c4)c3)cc12 | 1000 to 10000 nM | 250 to 1000 nM |
| CNC(=O)c1c(-c2ccc(F)cc2)oc2ccc(-c3cccc(C(=O)NC(C)c4cccnc4)c3)cc12 (centres unmarked) | < 250 nM | 250 to 1000 nM |
| CNC(=O)c1c(-c2ccc(F)cc2)oc2ccc(-c3cccc(C(=O)N4CCC[C@H]4C(=O)N(C)C)c3)cc12 | 250 to 1000 nM | 250 to 1000 nM |
| CNC(=O)c1c(-c2ccc(F)cc2)oc2ccc(-c3cccc(C(=O)N4CCCC4c4ccccn4)c3)cc12 (centres unmarked) | 250 to 1000 nM | 250 to 1000 nM |
| CNC(=O)c1c(-c2ccc(F)cc2)oc2ccc(-c3cccc(C(=O)NC(C)CCc4ccccc4)c3)cc12 (centres unmarked) | 250 to 1000 nM | 250 to 1000 nM |
| CNC(=O)c1c(-c2ccc(F)cc2)oc2ccc(-c3cccc(C(=O)NC(C)(C)c4cccc5ccccc45)c3)cc12 | 250 to 1000 nM | 250 to 1000 nM |
| CNC(=O)c1c(-c2ccc(F)cc2)oc2ccc(-c3cccc(C(=O)Nc4nccs4)c3)cc12 | < 250 nM | 250 to 1000 nM |
| CNC(=O)c1c(-c2ccc(F)cc2)oc2ccc(-c3ccccn3)cc12 | 1000 to 10000 nM | 250 to 1000 nM |
| CNC(=O)c1c(-c2ccc(F)cc2)oc2ccc(-c3cccc(C#N)c3)cc12 | > 10000 nM | 250 to 1000 nM |
| CNC(=O)c1c(-c2ccc(F)cc2)oc2ccc(-c3cccc4[nH]ccc34)cc12 | > 10000 nM | 250 to 1000 nM |
| CNC(=O)c1c(-c2ccc(F)cc2)oc2ccc(-c3cccc(C(=O)N(C)Cc4ccccc4)c3)cc12 | 250 to 1000 nM | 250 to 1000 nM |
| CNC(=O)c1c(-c2ccc(F)cc2)oc2ccc(-c3cccc(C(=O)N4CCCC4c4ccccc4)c3)cc12 (centres unmarked) | 250 to 1000 nM | 250 to 1000 nM |
| CNC(=O)c1c(-c2ccc(F)cc2)oc2ccc(-c3cccc(C(=O)N4CCC(c5ccc(F)cc5)C4)c3)cc12 (centres unmarked) | 250 to 1000 nM | 250 to 1000 nM |
| CCNC(=O)C(C)(C)NC(=O)c1cccc(-c2ccc3oc(-c4ccc(F)cc4)c(C(=O)NC)c3c2)c1 | 250 to 1000 nM | 250 to 1000 nM |
| CNC(=O)c1c(-c2ccc(F)cc2)oc2ccc(-c3cccc(C(=O)NC(C)(C)C(=O)NCC#N)c3)cc12 | < 250 nM | 250 to 1000 nM |
| C=CCNC(=O)C(C)(C)NC(=O)c1cccc(-c2ccc3oc(-c4ccc(F)cc4)c(C(=O)NC)c3c2)c1 | 250 to 1000 nM | 250 to 1000 nM |
| CNC(=O)c1c(-c2ccc(F)cc2)oc2ccc(-c3cc(C(=O)NCC(C)C)ccc3OC(C)C)cc12 | 250 to 1000 nM | 250 to 1000 nM |
| CNC(=O)c1c(-c2ccc(F)cc2)oc2cc(NC(=O)COC)c(-c3cccc(C(=O)NC4(c5ccccc5)CC4)c3)cc12 | 250 to 1000 nM | 250 to 1000 nM |
| CNC(=O)c1c(-c2ccc(F)cc2)oc2ccc(-c3cc(C(=O)NCC(C)C)ccc3OC3CCC3)cc12 | > 1390 nM | 250 to 1000 nM |

| SMILES | IC50 [1] | EC50 [2] |
| --- | --- | --- |
| CNC(=O)c1c(-c2ccc(F)cc2)oc2cc([N+](=O)[O-])c(-c3cc(C(=O)NCC(C)C)ccc3OC)cc12 | 250 to 1000 nM | 250 to 1000 nM |
| CNC(=O)c1c(-c2ccc(F)cc2)oc2ccc(Oc3ccc(/C=C(\NC(=O)c4ccccc4)C(=O)OC)cc3)cc12 | 1000 to 10000 nM | 1000 to 10000 nM |
| CNC(=O)c1c(-c2ccc(F)cc2)oc2ccc(-c3cnc(OC)nc3)cc12 | 1000 to 10000 nM | 1000 to 10000 nM |
| CNC(=O)c1c(-c2ccc(F)cc2)oc2ccc(-c3ccc(C(=O)O)cc3)cc12 | 250 to 1000 nM | 1000 to 10000 nM |
| CNC(=O)c1c(-c2ccc(F)cc2)oc2ccc(-c3cccc(C(=O)NCCN(C)C)c3)cc12 | 1000 to 10000 nM | 1000 to 10000 nM |
| CNC(=O)c1c(-c2ccc(F)cc2)oc2ccc(-c3ccc(/C=C/C(=O)O)cc3)cc12 | 1000 to 10000 nM | 1000 to 10000 nM |
| CNC(=O)c1c(-c2ccc(F)cc2)oc2ccc(-c3cccc(NC(C)=O)c3)cc12 | 1000 to 10000 nM | 1000 to 10000 nM |
| CNC(=O)c1c(-c2ccc(F)cc2)oc2ccc(OCCOc3ccc(C(C)(C)C)cc3)cc12 | > 10000 nM | 1000 to 10000 nM |
| CNC(=O)c1c(-c2ccc(F)cc2)oc2ccc(OCCCNC(=O)OC(C)(C)C)cc12 | 1000 to 10000 nM | 1000 to 10000 nM |
| CNC(=O)c1c(-c2ccc(F)cc2)oc2ccc(-c3ccc(F)cc3OCc3ccccc3)cc12 | > 10000 nM | 1000 to 10000 nM |
| CNC(=O)c1c(-c2ccc(F)cc2)oc2ccc(-c3ccc(OC4CCCCO4)cc3)cc12 (centres unmarked) | > 10000 nM | 1000 to 10000 nM |
| CNC(=O)c1c(-c2ccc(F)cc2)oc2ccc(-c3cnc(OC)c(F)c3)cc12 | > 10000 nM | 1000 to 10000 nM |
| CNC(=O)c1c(-c2ccc(F)cc2)oc2ccc(-c3ccc(S(=O)(=O)NC)cc3)cc12 | > 10000 nM | 1000 to 10000 nM |
| CNC(=O)c1c(-c2ccc(F)cc2)oc2ccc(-c3cc(Cl)cnc3F)cc12 | > 10000 nM | 1000 to 10000 nM |
| CNC(=O)c1c(-c2ccc(F)cc2)oc2ccc(-c3ccc(C(=O)N4CCCC4)cc3)cc12 | 1000 to 10000 nM | 1000 to 10000 nM |
| CNC(=O)c1c(-c2ccc(F)cc2)oc2ccc(-c3cc(CO)ccc3Cl)cc12 | > 10000 nM | 1000 to 10000 nM |
| CC(C)Oc1cc2c(-c3ncn[nH]3)c(-c3ccc(F)cc3)oc2cc1N(C)S(C)(=O)=O | 250 to 1000 nM | 1000 to 10000 nM |
| CNC(=O)c1c(-c2ccc(F)cc2)oc2ccc(-c3cccc(C(=O)OC(C)(C)C)c3)cc12 | 1000 to 10000 nM | 1000 to 10000 nM |
| CCN(CC)C(=O)c1cccc(-c2ccc3oc(-c4ccc(F)cc4)c(C(=O)NC)c3c2)c1 | 1000 to 10000 nM | 1000 to 10000 nM |
| CNC(=O)c1c(-c2ccc(F)cc2)oc2ccc(-c3cccc(C(=O)N(C)C)c3)cc12 | 1000 to 10000 nM | 1000 to 10000 nM |
| CNC(=O)c1c(-c2ccc(F)cc2)oc2ccc(-c3cccc(/C=C/C(=O)O)c3)cc12 | 250 to 1000 nM | 1000 to 10000 nM |
| CNC(=O)c1c(-c2ccc(F)cc2)oc2ccc(-c3cccc(C(=O)N4CCC(C)CC4)c3)cc12 | 1000 to 10000 nM | 1000 to 10000 nM |
| CNC(=O)c1c(-c2ccc(F)cc2)oc2ccc(-c3cccc(C(=O)N4CCCCC4)c3)cc12 | 250 to 1000 nM | 1000 to 10000 nM |
| CNC(=O)c1c(-c2ccc(F)cc2)oc2ccc(-c3cccc(C(=O)NCc4ccccc4O)c3)cc12 | 250 to 1000 nM | 1000 to 10000 nM |
| CNC(=O)c1c(-c2ccc(F)cc2)oc2ccc(-c3cccc(C(=O)N4CCCC(O)C4)c3)cc12 (centres unmarked) | 1000 to 10000 nM | 1000 to 10000 nM |
| CNC(=O)c1c(-c2ccc(F)cc2)oc2ccc(-c3cccc(C(=O)NCc4ccccc4N)c3)cc12 | 1000 to 10000 nM | 1000 to 10000 nM |
